From the SangsterLogP compilation come the findings set out here.

The data set in a line: method code SF-AS, from DOI: 10.1016/s0021-9673(00)82338-9. To be noted: pH 9.0.

A word on the logD: it is the decadic logarithm of the distribution of all forms, ionised or not, between an organic phase and buffer at a given pH. Read a low logD as a more hydrophilic compound. In the case of `Cn1c([N+](=O)[O-])cnc1C=O`, the logD is -0.69.
Compound `Cn1c([N+](=O)[O-])cnc1C1CC1` had a logD of 1.
With `CN1CCN(Cc2ncc([N+](=O)[O-])n2C)CC1` the figure was -0.32; with `Cn1c([N+](=O)[O-])cnc1COC(N)=O`, -0.38; with `O=[N+]([O-])c1cnc(C=Cc2ccc3c(c2)OCO3)n1CCO`, 2.03.
Under `Cc1ncc([N+](=O)[O-])n1CC(O)Cn1c([N+](=O)[O-])cnc1C` stands 0.31; under `O=[N+]([O-])c1cncn1CCN1CCOCC1`, 0.07.
`Cn1c([N+](=O)[O-])cnc1CO` yielded a pH-dependent lipophilicity (logD) of -0.03.
As to `Cc1ncc([N+](=O)[O-])n1CC(=O)N1C=CN(C(=O)Cn2c([N+](=O)[O-])cnc2C)C=C1`, the logD is -0.7.
